The source of these data is ChEMBL document CHEMBL1201862, “PubChem BioAssay data set” (2004).

Among the test systems are A549; CAKI-1; COLO 205; HCT-116; HOP-92; LOX IMVI; NCI-H23; NCI-H522; NCI/ADR-RES; OVCAR-3; OVCAR-4; SF-295; SK-OV-3; SN12C; UO-31; 786-0; DU-145; PC-3.
Holding throughout (assay): NCI-60 cell line screen, 48 h

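Cultured in 96-well plates, cells were exposed to test compound for 48 hours across five concentrations. Abbreviation: GI50, concentration required for 50% inhibition of growth.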 Active and inactive are the calls of the source. Rule as the data show it: active = GI50 up to about 1.1 µM and inactive = higher. Some results are limits rather than exact numbers.

`O=P(NCCCO)(OCc1ccccc1)N(CCCl)CCCl` (stereo not drawn): the GI50 in the assay with A549, in the assay on CAKI-1, in the assay on COLO 205, with HCT-116, in the assay with HOP-92 and in the assay on LOX IMVI was > 100 µM (inactive) in each case. The GI50 in the assay with NCI-H23, in the assay on NCI-H522, with NCI/ADR-RES, in the assay on OVCAR-3, in the assay with OVCAR-4 and in the assay with SF-295 was > 100 µM (inactive) throughout. The GI50 in the assay with SK-OV-3, in the assay with SN12C and in the assay with UO-31 was > 100 µM (inactive) throughout.

For `N#Cc1c(-c2ccc(Cl)cc2)cc(-c2ccc(Nc3ccnc4cc(Cl)ccc34)cc2)nc1N`, the GI50 in the assay on 786-0, in the assay on A549, in the assay on CAKI-1, in the assay on COLO 205, with DU-145 and in the assay on HCT-116 was > 100 µM (inactive) throughout. Further, the GI50 is > 100 µM (inactive) in the assay with HOP-92; > 100 µM (inactive) in the assay with NCI-H23; 41.7 µM (inactive) with NCI-H522; > 100 µM (inactive) in the assay on NCI/ADR-RES; > 100 µM (inactive) in the assay on OVCAR-3; 38.2 µM (inactive) in the assay with OVCAR-4. Also, the GI50 with PC-3, in the assay on SF-295, with SK-OV-3 and in the assay with UO-31 was > 100 µM (inactive) throughout.

Turning to `O=C(Nc1cccs1)c1c(O)[nH]c(=S)[nH]c1=O`, the GI50 with 786-0, in the assay on A549, in the assay on CAKI-1, with COLO 205, in the assay with HOP-92 and in the assay with LOX IMVI was > 100 µM (inactive) in each case. In addition, the GI50 in the assay with NCI-H23, in the assay on NCI-H522, with OVCAR-3, with OVCAR-4, with SF-295 and in the assay on SK-OV-3 was > 100 µM (inactive) each time. For the same compound, the GI50 with SN12C and in the assay with UO-31 was > 100 µM (inactive) each time.

`COc1ccc(C2=Nc3cc(C)c(C)cc3NC(c3ccccc3)C2)cc1` (stereo not drawn): the GI50 in the assay on 786-0 is > 100 µM (inactive); in the assay on A549, 44.7 µM (inactive); in the assay with CAKI-1, > 100 µM (inactive); in the assay on COLO 205, 17.7 µM (inactive); with DU-145, > 100 µM (inactive); in the assay with HCT-116, 27 µM (inactive). For the same compound, the GI50 is 24.1 µM (inactive) with HOP-92; 28.7 µM (inactive) in the assay with LOX IMVI; > 100 µM (inactive) in the assay on NCI-H23; 30.8 µM (inactive) with NCI-H522; 43.4 µM (inactive) in the assay on NCI/ADR-RES; > 100 µM (inactive) in the assay with OVCAR-3. Besides, the GI50 in the assay on OVCAR-4 is > 100 µM (inactive); with PC-3, > 100 µM (inactive); in the assay on SF-295, > 100 µM (inactive); with SK-OV-3, > 100 µM (inactive); in the assay on SN12C, > 100 µM (inactive); with UO-31, 57 µM (inactive).

Turning to `c1cc2c3c(c1)c1cc4c(cc1c[n+]3CC2)OCO4` [ANHYDROLYCORINIUM CHLORIDE], the GI50 in the assay with A549 was 1.15 µM (inactive); in the assay with CAKI-1, 12.5 µM (inactive); with COLO 205, 2.74 µM (inactive); in the assay on HCT-116, 2.81 µM (inactive); with HOP-92, 25.3 µM (inactive); with LOX IMVI, 25.5 µM (inactive). Moreover, the GI50 in the assay on NCI-H23 was 3.59 µM (inactive); in the assay with NCI-H522, 2.3 µM (inactive); in the assay with NCI/ADR-RES, > 225 µM (inactive); in the assay with OVCAR-3 it was 3.4 µM (inactive); with OVCAR-4, 0.383 µM (active); in the assay on SF-295, 0.802 µM (active). The GI50 with SK-OV-3 was 10.2 µM (inactive); in the assay with SN12C, 1.99 µM (inactive); in the assay on UO-31 it was > 127 µM (inactive).
